Paper PMC10356948, “Crystal structures of herbicide-detoxifying esterase reveal a lid loop affecting substrate binding and activity” (Nature Communications, 2023)
Blank lines part the entries; values can stand above or below the compound they belong to.

Tests used:
SulE [1] = biological target: T1, SulE (Hansschlegelia zhihuaiae, UniProt G9I933, P80R); experiment: SPR (Biacore T200, protein amine-coupled to CM7 chip), steady-state affinity; assay type: binding
T1 construct: pET-29a(+), E. coli BL21(DE3), C-terminal His6 tag; full-length precursor 398 aa, predicted signal peptide cleavage Ala37/Glu38; homodimer, lid loop of one subunit covers active site of the other; residues 12-360 (mature count) seen in crystal

SulE [2] = biological target: T2, SulE (Hansschlegelia zhihuaiae, UniProt G9I933, P80R/S245A/H369A); experiment: X-ray crystal structure (co-crystal); assay type: binding; conditions: 5 mM substrate, 4 °C, pH 7.0; active site, catalytically dead mutant
T2 construct: pET-29a(+), E. coli BL21(DE3), C-terminal His6 tag; full-length precursor 398 aa, predicted signal peptide cleavage Ala37/Glu38; homodimer, lid loop of one subunit covers active site of the other; residues 12-360 (mature count) seen in crystal

SulE [3] = biological target: T3, SulE (Hansschlegelia zhihuaiae, UniProt G9I933, S245A/H369A); experiment: X-ray crystal structure (co-crystal); assay type: binding; conditions: 5 mM substrate, 4 °C, pH 7.0; active site, catalytically dead mutant
T3 construct: pET-29a(+), E. coli BL21(DE3), C-terminal His6 tag; full-length precursor 398 aa, predicted signal peptide cleavage Ala37/Glu38; homodimer, lid loop of one subunit covers active site of the other; residues 12-360 (mature count) seen in crystal

SulE [4] = biological target: T4, SulE (Hansschlegelia zhihuaiae, UniProt G9I933); experiment: SPR (Biacore T200, protein amine-coupled to CM7 chip), steady-state affinity; assay type: binding
T4 construct: pET-29a(+), E. coli BL21(DE3), C-terminal His6 tag; full-length precursor 398 aa, predicted signal peptide cleavage Ala37/Glu38; homodimer, lid loop of one subunit covers active site of the other; residues 12-360 (mature count) seen in crystal

[5] = biological target: SulE (wild-type esterase from Hansschlegelia zhihuaiae S113) (Hansschlegelia zhihuaiae S113); experiment: crystal structure; X-ray crystal structures of purified SulE and mutants; apo-SulE at 1.46 Å, space group P21, two monomers in the asymmetric unit; sitting-drop vapor diffusion at 4 °C; apo-SulE in 0.1 M citric acid-trisodium citrate pH 5.5, 20% PEG 4000; cocrystals and P44R mutants in 0.1 M ammonium tartrate dibasic pH 7.0, 12-15% PEG 3350, with 5 mM substrate
SulE [6] = biological target: T4, SulE; experiment: X-ray crystal structure (co-crystal with CE, hydrolysed in crystallisation); assay type: binding; conditions: 5 mM CE, 4 °C, pH 5.5; active site

T1 sequence (G9I933 entry or part of it P80R): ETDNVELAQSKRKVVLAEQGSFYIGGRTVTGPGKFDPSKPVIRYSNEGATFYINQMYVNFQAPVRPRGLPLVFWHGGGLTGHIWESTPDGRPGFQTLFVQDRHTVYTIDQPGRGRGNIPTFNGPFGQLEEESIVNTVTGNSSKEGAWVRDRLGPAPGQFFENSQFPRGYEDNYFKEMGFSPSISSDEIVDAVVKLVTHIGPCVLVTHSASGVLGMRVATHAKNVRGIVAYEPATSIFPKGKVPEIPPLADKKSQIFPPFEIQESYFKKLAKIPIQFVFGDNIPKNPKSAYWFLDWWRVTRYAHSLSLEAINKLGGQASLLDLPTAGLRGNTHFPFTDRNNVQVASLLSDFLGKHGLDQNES
T3 sequence (G9I933 entry or part of it S245A/H369A): as the sequence (G9I933 entry or part of it P80R) above, with R43P, S208A, H332A counted along it
T4 sequence (G9I933 entry or part of it): as the sequence (G9I933 entry or part of it P80R) above, with R43P counted along it
T2 sequence (G9I933 entry or part of it P80R/S245A/H369A): as the sequence (G9I933 entry or part of it P80R) above, with S208A, H332A counted along it

Compound: COC(=O)c1ccccc1S(=O)(=O)NC(=O)Nc1nc(C)nc(OC)n1 [MM, metsulfuron-methyl]
Kd (SulE [1]): 2.89 µM
X-ray crystal structure (co-crystal) (SulE [2]): the triple mutant P44R/S209A/H333A in complex with MM, CE, and TM
X-ray crystal structure (co-crystal) (SulE [3]): mutant S209A/H333A in complex with MM, SM, TM, TrM, EM, BM, and CE
Kd (SulE [4]): 5.58 µM

Compound: COC(=O)c1ccccc1S(=O)(=O)NC(=O)N(C)c1nc(C)nc(OC)n1 [TrM, tribenuron-methyl]
X-ray crystal structure (co-crystal) (SulE [3]): mutant S209A/H333A in complex with MM, SM, TM, TrM, EM, BM, and CE

Compound: CCOc1nc(NC)nc(NC(=O)NS(=O)(=O)c2ccccc2C(=O)OC)n1 [EM, ethametsulfuron-methyl]
X-ray crystal structure (co-crystal) (SulE [3]): mutant S209A/H333A in complex with MM, SM, TM, TrM, EM, BM, and CE

Compound: CCOC(=O)c1ccccc1S(=O)(=O)NC(=O)Nc1nc(Cl)cc(OC)n1 [CE, chlorimuron-ethyl]
Kd (SulE [1]): 1.36 µM
Kd (SulE [4]): 5.29 µM

stoichiometry N [5]: 2
Compound: SulE (wild-type esterase from Hansschlegelia zhihuaiae S113) (enzyme)

Compound: COc1cc(Cl)nc(NC(=O)NS(=O)(=O)c2ccccc2C(=O)O)n1 [CA, chlorimuron acid]
X-ray crystal structure (co-crystal with CE, hydrolysed in crystallisation) (SulE [6]): crystal structures of wild-type SulE in complex with CA

Compound: COC(=O)c1sccc1S(=O)(=O)NC(=O)Nc1nc(C)nc(OC)n1 [TM, thifensulfuron-methyl]
Kd (SulE [1]): 7.25 µM
Kd (SulE [4]): 8.85 µM

Compound: COC(=O)c1ccccc1CS(=O)(=O)NC(=O)Nc1nc(OC)cc(OC)n1 [BM, bensulfuron-methyl]
Kd (SulE [1]): 5.75 µM
Kd (SulE [4]): 6.34 µM
